Results reported in ChEMBL document CHEMBL1126532, “Excitatory amino acid receptor atagonists: synthesis and pharmacology of 3-(carboxymethoxy)isoxazoles derived from AMPA” (Bioorg Med Chem Lett, 1993).

Experiments:
[1] = biological target: Glutamate receptor ionotropic, AMPA (Rattus norvegicus, UniProt P19490+P19491+P19492+P19493); assay: Binding affinity by measuring displacement of [3H]AMPA from Ionotropic glutamate receptor AMPA in rat cortical slice preparation
[2] = biological target: Glutamate receptor ionotropic, AMPA (Rattus norvegicus) (UniProt P19491+P19492+P19493+P19490); assay: Binding affinity by measuring displacement of [3H]AMPA from Ionotropic glutamate receptor AMPA in rat cortical slice preparation at 100 uM
[3] = biological target: Glutamate receptor ionotropic, kainate; assay: Binding affinity by measuring displacement of [3H]KAIN from Ionotropic glutamate receptor kainate in rat cortical slice preparation
Glutamate NMDA receptor = assay: Binding affinity by measuring displacement of [3H]CPP from NMDA receptor in rat cortical slice preparation

Row | IC50 [1] [µM] | inhibition [2] [%] | IC50 [3] [µM] | IC50 (Glutamate NMDA receptor) [µM] | Structure (SMILES)
1 | > 100 | 40 | > 100 | > 100 | NC(Cc1c(OCC(=O)O)noc1C(F)(F)F)C(=O)O (configuration not stated)
2 | 90 | – | > 100 | > 100 | Cc1onc(OCC(=O)O)c1CC(N)C(=O)O (configuration not stated)
3 | > 100 | – | > 100 | 4.5 | Cc1o[nH]c(=O)c1C(N)C(=O)O (configuration not stated)
4 | > 100 | – | > 100 | 16 | O=C(O)COc1noc2c1CC(C(=O)O)NC2 (configuration not stated)
5 | > 100 | – | > 100 | > 100 | Cc1onc(OCC(=O)O)c1C(N)C(=O)O (configuration not stated)

Row | Structure (SMILES) | IC50 [1] [µM] | inhibition [2] [%] | IC50 [3] [µM] | IC50 (Glutamate NMDA receptor) [µM]
6 | C=C(C)[C@H]1CN[C@H](C(=O)O)[C@H]1CC(=O)O [KAINIC ACID] | – | – | – | > 100
